Among the data in patent US8129417B2, “Substituted octahydrocyclopenta[C]pyrrol-4-amines as calcium channel blockers” (Abbott Laboratories, priority 2008, dated 2012) are inhibition in vivo and IC50 values, retold here.

The first experiment deals with Sprague Dawley rats. Description: Capsaicin induced secondary mechanical hyperalgesia model. The experiment is classed as in vivo. As to conditions: po, 1 h, read-out: % inhibition @ 30 mg/kg p.o., 60 minutes before testing, secondary mechanical hyperalgesia 180 minutes after intraplantar capsaicin, rat. On the procedure: (ii) In Vivo Data—Capsaicin Induced Secondary Mechanical Hyperalgesia Model:
Sprague Dawley rats were briefly restrained, and capsaicin was administered at 10 μg in 10 μL of vehicle by intraplantar injection into the center of the right hind paw. Secondary mechanical hyperalgesia (SMH) was measured at the heel away from the site of injection 180 minutes following capsaicin exposure. Compounds and gabapentin (positive control), were administered p.o. 60 minutes before testing (2 hours after capsaicin) or i.p. 30 minutes before testing (2.5 hours after capsaicin). SMH was measured using calibrated von Frey filaments (Stoelting, Woodale, Ill.). Following the 1 hour habituation in the testing room, rats were moved to individual plexiglass chambers that sit on top of a wire mesh to allow for access for stimulation of the plantar surface of the hind paws. Rats were allowed to acclimate to the new chambers for 15 minutes before the onset of testing. The paw withdrawal threshold was determined by increasing and decreasing stimulus intensity (force: g) and calculated using Dixon's up-down method (Chaplan, S. R.; Bach, F. W.; Pogrel, J. W.; Chung, J. M.; Yaksh, T. L.; Quantitative assessment of tactile allodynia in the rat paw. J. Neuroscience Methods 1994, 53(1), 55-63.). The filaments (maximum force of 15.0 g) were held in place for 8 seconds or until there was a withdrawal response from the mechanical stimulation.
With `CC(C)C[C@H](NS(C)(=O)=O)C(=O)N[C@@H]1CC[C@H]2CN(Cc3cccc(C(F)(F)F)c3)C[C@H]21` [Example 170, N^2-(methylsulfonyl)-N^1-{(3aS,4R,6aR)-2-[3-(trifluoromethyl)benzyl]octahydrocyclopenta[c]pyrrol-4-yl}-L-leucinamide], the inhibition in vivo at 30 mg/kg was determined as 57%.
As for `CC(C)C[C@H](NS(=O)(=O)C1CC1)C(=O)N[C@@H]1CC[C@H]2CN(Cc3cccc(C(F)(F)F)c3)C[C@H]21` [Example 172, N^2-(cyclopropylsulfonyl)-N^1-{(3aS,4R,6aR)-2-[3-(trifluoromethyl)benzyl]octahydrocyclopenta[c]pyrrol-4-yl}-L-leucinamide], the inhibition in vivo at 30 mg/kg turned out to be 85%.

For a further experiment, the target named is human Cav2.2 (Homo sapiens, UniProt Q00975). As to the kind of experiment: Assessment of calcium channel activity using FLIPR (Ca2+ influx in IMR32 cells). The experiment is classed as cell-based. The following applies: 3 minute pre-incubation with compound (*), 2 μM nifedipine, depolarized with 80 mM KCl. Put shortly: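 IC50 came from sigmoidal non-linear regression of percent inhibition, relative to uninhibited activity, across compound concentrations. Calcium influx was measured by FLIPR in IMR32 cells plated at 1-1.2×10^5 cells/well and cultured 48 h at 37 °C.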
Chain of human Cav2.2 (Q00975 whole entry): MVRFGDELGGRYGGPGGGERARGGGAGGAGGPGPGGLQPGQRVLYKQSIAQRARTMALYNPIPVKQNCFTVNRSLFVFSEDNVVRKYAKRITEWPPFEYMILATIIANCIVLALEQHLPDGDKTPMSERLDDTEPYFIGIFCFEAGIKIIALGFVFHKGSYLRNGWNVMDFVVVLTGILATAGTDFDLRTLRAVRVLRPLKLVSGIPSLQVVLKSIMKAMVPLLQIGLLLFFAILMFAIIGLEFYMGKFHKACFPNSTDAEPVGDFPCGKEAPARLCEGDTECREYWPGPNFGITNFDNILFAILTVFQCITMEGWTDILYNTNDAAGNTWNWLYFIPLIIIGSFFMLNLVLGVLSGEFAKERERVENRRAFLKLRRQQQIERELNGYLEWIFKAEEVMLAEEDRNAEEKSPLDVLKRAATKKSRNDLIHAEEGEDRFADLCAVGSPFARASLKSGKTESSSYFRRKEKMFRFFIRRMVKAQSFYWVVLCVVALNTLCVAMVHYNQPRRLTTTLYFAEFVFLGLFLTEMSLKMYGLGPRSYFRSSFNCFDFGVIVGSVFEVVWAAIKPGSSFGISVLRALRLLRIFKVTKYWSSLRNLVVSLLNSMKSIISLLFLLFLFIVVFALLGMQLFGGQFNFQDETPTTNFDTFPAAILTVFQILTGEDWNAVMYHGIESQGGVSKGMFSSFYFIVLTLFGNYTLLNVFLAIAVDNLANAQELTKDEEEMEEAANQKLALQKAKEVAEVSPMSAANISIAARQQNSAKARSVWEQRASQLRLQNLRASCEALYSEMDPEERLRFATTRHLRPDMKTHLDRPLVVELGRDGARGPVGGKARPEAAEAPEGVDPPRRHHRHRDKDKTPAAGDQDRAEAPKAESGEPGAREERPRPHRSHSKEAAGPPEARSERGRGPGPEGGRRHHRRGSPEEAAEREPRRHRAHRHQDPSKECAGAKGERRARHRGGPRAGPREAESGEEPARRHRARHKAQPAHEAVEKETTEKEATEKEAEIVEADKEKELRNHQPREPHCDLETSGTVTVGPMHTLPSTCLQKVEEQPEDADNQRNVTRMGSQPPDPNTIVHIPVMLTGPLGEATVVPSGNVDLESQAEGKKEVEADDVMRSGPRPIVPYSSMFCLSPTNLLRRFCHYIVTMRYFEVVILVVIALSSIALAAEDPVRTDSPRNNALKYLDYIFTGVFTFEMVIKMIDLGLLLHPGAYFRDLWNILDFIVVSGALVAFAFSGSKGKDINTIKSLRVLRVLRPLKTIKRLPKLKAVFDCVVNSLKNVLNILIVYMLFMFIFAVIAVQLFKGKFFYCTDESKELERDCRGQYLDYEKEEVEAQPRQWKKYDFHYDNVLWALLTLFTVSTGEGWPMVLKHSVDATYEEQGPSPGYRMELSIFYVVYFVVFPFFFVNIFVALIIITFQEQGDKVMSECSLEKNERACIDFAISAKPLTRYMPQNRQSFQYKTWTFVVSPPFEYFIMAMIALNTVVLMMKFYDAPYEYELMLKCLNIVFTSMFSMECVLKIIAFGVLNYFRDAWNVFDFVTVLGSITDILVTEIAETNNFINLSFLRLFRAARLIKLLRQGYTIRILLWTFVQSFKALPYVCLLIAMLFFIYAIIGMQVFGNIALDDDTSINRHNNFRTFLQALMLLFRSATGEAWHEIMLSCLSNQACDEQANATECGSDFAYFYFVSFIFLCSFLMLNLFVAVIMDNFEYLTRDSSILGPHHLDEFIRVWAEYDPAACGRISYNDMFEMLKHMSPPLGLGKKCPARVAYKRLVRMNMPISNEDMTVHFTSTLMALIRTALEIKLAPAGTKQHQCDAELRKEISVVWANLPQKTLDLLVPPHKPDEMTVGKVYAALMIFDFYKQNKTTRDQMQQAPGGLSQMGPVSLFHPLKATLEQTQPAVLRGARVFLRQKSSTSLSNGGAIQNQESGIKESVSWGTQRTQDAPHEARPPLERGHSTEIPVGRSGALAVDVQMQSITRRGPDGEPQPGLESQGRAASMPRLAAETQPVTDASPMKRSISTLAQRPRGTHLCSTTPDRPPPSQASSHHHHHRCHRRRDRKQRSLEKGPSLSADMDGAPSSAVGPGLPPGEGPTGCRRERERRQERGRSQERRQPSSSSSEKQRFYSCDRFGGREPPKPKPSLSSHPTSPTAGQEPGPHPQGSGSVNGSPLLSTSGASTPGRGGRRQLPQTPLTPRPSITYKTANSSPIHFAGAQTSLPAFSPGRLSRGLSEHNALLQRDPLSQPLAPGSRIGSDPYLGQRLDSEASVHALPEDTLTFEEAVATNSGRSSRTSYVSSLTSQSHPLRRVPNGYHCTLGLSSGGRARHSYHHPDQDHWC
Chain of human Cav2.2 (P54289 25-946 partner limits assumed): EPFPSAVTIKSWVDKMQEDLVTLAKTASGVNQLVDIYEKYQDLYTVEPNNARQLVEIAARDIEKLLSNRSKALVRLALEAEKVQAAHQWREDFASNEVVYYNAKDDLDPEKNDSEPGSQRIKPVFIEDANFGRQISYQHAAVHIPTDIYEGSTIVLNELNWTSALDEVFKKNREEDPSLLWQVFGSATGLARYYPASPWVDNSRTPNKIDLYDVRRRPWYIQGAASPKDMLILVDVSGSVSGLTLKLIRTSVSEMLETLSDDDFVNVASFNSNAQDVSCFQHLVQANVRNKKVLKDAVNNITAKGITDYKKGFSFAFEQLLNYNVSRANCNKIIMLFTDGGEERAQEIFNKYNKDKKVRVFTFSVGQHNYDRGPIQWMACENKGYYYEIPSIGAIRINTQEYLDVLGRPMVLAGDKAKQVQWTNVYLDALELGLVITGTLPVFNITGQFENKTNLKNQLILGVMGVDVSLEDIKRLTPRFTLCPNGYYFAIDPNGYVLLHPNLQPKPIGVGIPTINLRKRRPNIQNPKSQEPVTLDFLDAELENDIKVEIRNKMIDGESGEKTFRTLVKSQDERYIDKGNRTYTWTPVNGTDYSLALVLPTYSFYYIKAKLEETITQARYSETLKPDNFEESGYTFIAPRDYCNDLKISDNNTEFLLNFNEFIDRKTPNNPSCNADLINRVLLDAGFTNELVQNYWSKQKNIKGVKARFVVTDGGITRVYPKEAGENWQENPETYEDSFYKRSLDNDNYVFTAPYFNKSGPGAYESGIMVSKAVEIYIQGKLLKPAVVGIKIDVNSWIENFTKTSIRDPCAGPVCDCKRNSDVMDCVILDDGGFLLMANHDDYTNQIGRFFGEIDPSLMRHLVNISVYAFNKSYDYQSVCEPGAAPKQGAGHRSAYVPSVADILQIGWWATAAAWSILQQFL
Chain of human Cav2.2 (P54289 947-1103 partner limits assumed): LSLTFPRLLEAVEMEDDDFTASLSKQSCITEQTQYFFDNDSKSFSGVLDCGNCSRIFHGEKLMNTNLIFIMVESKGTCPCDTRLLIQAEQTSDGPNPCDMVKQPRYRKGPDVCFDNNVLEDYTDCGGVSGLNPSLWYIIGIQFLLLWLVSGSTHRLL
Chain of human Cav2.2 (P54284 whole entry partner): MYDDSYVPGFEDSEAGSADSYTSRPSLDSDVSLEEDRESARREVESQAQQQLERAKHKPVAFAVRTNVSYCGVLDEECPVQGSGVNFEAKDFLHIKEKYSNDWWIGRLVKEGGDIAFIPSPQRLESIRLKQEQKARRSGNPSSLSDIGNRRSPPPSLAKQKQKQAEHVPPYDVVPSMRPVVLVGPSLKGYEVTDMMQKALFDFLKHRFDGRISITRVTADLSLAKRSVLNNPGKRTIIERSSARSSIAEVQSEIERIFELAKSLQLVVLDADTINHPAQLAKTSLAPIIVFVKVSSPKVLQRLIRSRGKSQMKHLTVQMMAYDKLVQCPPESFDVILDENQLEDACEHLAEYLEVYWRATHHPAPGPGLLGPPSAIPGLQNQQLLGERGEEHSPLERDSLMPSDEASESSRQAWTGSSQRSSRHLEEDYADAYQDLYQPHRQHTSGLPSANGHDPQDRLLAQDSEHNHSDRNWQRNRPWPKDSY
As for “N-[(3aS*,4R*,6aR*)-2-benzyloctahydrocyclopenta[c]pyrrol-4-yl]-2-cyclohexyl-2-phenylacetamide [Example 4]”, the IC50 (in general, the concentration needed to halve the response being measured) was 3500 nM.

The same experiment, now with this note: 60 minute pre-incubation with compound, 2 μM nifedipine, depolarized with 80 mM KCl.
On to `CCC[C@H](NC(=O)OC1CCCC1)C(=O)N[C@H]1CC[C@@H]2CN(Cc3ccc(C(F)(F)F)cc3)C[C@@H]21` [Example 527, Cyclopentyl (S)-1-oxo-1-((3aR,4S,6aS)-2-(4-(trifluoromethyl)benzyl)octahydrocyclopenta[c]pyrrol-4-ylamino)pentan-2-ylcarbamate], for which the IC50 was 2290 nM.
With `CCC[C@H](NC(=O)C(C)(C)C)C(=O)N[C@H]1CC[C@@H]2CN(Cc3ccc(C(F)(F)F)cc3)C[C@@H]21` [Example 528, N^2-(2,2-dimethylpropanoyl)-N^1-{(3aR,4S,6aS)-2-[4-(trifluoromethyl)benzyl]octahydrocyclopenta[c]pyrrol-4-yl}-L-norvalinamide], the IC50 amounted to 7230 nM.
On the same count and under the same terms, the figure for `CCC[C@@H](C(=O)N[C@H]1CC[C@@H]2CN(S(=O)(=O)c3ccc(F)c(Cl)c3)C[C@@H]21)N(C)C(=O)OC(C)(C)C` [Example 529, Tert-butyl (S)-1-((3aR,4S,6aS)-2-(3-chloro-4-fluorophenylsulfonyl)octahydrocyclopenta[c]pyrrol-4-ylamino)-1-oxopentan-2-yl(methyl)carbamate] is 960 nM; for `CCC[C@@H](C(=O)N[C@H]1CC[C@@H]2CN(S(=O)(=O)c3cccnc3)C[C@@H]21)N(C)C(=O)OC(C)(C)C` [Example 530, Tert-butyl methyl((S)-1-oxo-1-((3aR,4S,6aS)-2-(pyridin-3-ylsulfonyl)octahydrocyclopenta[c]pyrrol-4-ylamino)pentan-2-yl)carbamate] it is 7630 nM; for `CCC[C@H](NC)C(=O)N[C@H]1CC[C@@H]2CN(S(=O)(=O)c3ccc(F)c(Cl)c3)C[C@@H]21` [Example 534, N^1-{(3aR,4S,6aS)-2-[(3-chloro-4-fluorophenyl)sulfonyl]octahydrocyclopenta[c]pyrrol-4-yl}-N^2-methyl-L-norvalinamide] it is 6380 nM.
The same measure, in the same setting: the figure for `CCC[C@H](NC)C(=O)N[C@H]1CC[C@@H]2CN(S(=O)(=O)c3ccc(F)cc3Cl)C[C@@H]21` [Example 539, N^1-{(3aR,4S,6aS)-2-[(2-chloro-4-fluorophenyl)sulfonyl]octahydrocyclopenta[c]pyrrol-4-yl}-N^2-methyl-L-norvalinamide] is 4390 nM.
With `CCC[C@H](NC)C(=O)N[C@H]1CC[C@@H]2CN(S(=O)(=O)c3cccc4ccccc34)C[C@@H]21` [Example 540, N^2-methyl-N^1-[(3aR,4S,6aS)-2-(1-naphthylsulfonyl)octahydrocyclopenta[c]pyrrol-4-yl]-L-norvalinamide], the IC50 is 1670 nM.
`CCC[C@H](NC)C(=O)N[C@H]1CC[C@@H]2CN(S(=O)(=O)c3ccc(Br)c(C(F)(F)F)c3)C[C@@H]21` [Example 541, N^1-((3aR,4S,6aS)-2-{[4-bromo-3-(trifluoromethyl)phenyl]sulfonyl}octahydrocyclopenta[c]pyrrol-4-yl)-N^2-methyl-L-norvalinamide]: the IC50 was 2570 nM.
Still for that read-out and setting: for `CCC[C@H](NC)C(=O)N[C@H]1CC[C@@H]2CN(S(=O)(=O)c3ccc(Cl)c(Cl)c3)C[C@@H]21` [Example 542, N^1-{(3aR,4S,6aS)-2-[(3,4-dichlorophenyl)sulfonyl]octahydrocyclopenta[c]pyrrol-4-yl}-N^2-methyl-L-norvalinamide] the value was 2360 nM.
`CCC[C@H](NC)C(=O)N[C@H]1CC[C@@H]2CN(S(=O)(=O)c3ccc(-c4ccccc4)cc3)C[C@@H]21` [Example 544, N^1-[(3aR,4S,6aS)-2-(1,1′-biphenyl-4-ylsulfonyl)octahydrocyclopenta[c]pyrrol-4-yl]-N^2-methyl-L-norvalinamide]: the IC50 came out at 2150 nM.
`CCC[C@H](NC)C(=O)N[C@H]1CC[C@@H]2CN(S(=O)(=O)c3cccc(C#N)c3)C[C@@H]21` [Example 546, N^1-{(3aR,4S,6aS)-2-[(3-cyanophenyl)sulfonyl]octahydrocyclopenta[c]pyrrol-4-yl}-N^2-methyl-L-norvalinamide]: the IC50 amounted to 6320 nM.
With `CCC[C@H](NC)C(=O)N[C@H]1CC[C@@H]2CN(S(=O)(=O)c3cccc(Cl)c3Cl)C[C@@H]21` [Example 548, N^1-{(3aR,4S,6aS)-2-[(2,3-dichlorophenyl)sulfonyl]octahydrocyclopenta[c]pyrrol-4-yl}-N^2-methyl-L-norvalinamide], the IC50 came out at 1050 nM.
As to `CCC[C@H](NC)C(=O)N[C@H]1CC[C@@H]2CN(S(=O)(=O)c3ccccc3C(F)(F)F)C[C@@H]21` [Example 550, N^2-methyl-N^1-((3aR,4S,6aS)-2-{[2-(trifluoromethyl)phenyl]sulfonyl}octahydrocyclopenta[c]pyrrol-4-yl)-L-norvalinamide], the IC50 is 2570 nM.
For the compound `CCC[C@H](NC)C(=O)N[C@H]1CC[C@@H]2CN(S(=O)(=O)c3cccc(Br)c3)C[C@@H]21` [Example 551, N^1-{(3aR,4S,6aS)-2-[(3-bromophenyl)sulfonyl]octahydrocyclopenta[c]pyrrol-4-yl}-N^2-methyl-L-norvalinamide], the IC50 worked out at 2490 nM.
Take `CCC[C@H](NC)C(=O)N[C@H]1CC[C@@H]2CN(S(=O)(=O)c3ccc(C(F)(F)F)cc3Cl)C[C@@H]21` [Example 552, N^1-((3aR,4S,6aS)-2-{[2-chloro-4-(trifluoromethyl)phenyl]sulfonyl}octahydrocyclopenta[c]pyrrol-4-yl)-N^2-methyl-L-norvalinamide]: the IC50 is 780 nM.
On to `CCC[C@H](NC)C(=O)N[C@H]1CC[C@@H]2CN(S(=O)(=O)c3cc(C(F)(F)F)ccc3Cl)C[C@@H]21` [Example 553, N^1-((3aR,4S,6aS)-2-{[2-chloro-5-(trifluoromethyl)phenyl]sulfonyl}octahydrocyclopenta[c]pyrrol-4-yl)-N^2-methyl-L-norvalinamide], for which the IC50 was found to be 1940 nM.
For `CC(C)N([C@H]1CC[C@@H]2CN(Cc3ccccc3)C[C@@H]21)S(=O)(=O)c1cccc(C(F)(F)F)c1` [Example 555, N-[(3aR,4S,6aS)-2-benzyloctahydrocyclopenta[c]pyrrol-4-yl]-N-isopropyl-3-(trifluoromethyl)benzenesulfonamide], the IC50 worked out at 2510 nM.
For the compound `O=S(=O)(N[C@H]1CC[C@@H]2CN(Cc3ccccc3)C[C@@H]21)c1cccc(C(F)(F)F)c1` [Example 556, N-[(3aR,4S,6aS)-2-benzyloctahydrocyclopenta[c]pyrrol-4-yl]-3-(trifluoromethyl)benzenesulfonamide], the IC50 is 2580 nM.
On the same count and under the same terms, for `CN[C@@H](CC(C)C)C(=O)N1C[C@H]2CC[C@H](N(C(C)C)S(=O)(=O)c3cccc(C(F)(F)F)c3)[C@H]2C1` [Example 557, N-isopropyl-N-[(3aR,4S,6aS)-2-(N-methyl-L-leucyl)octahydrocyclopenta[c]pyrrol-4-yl]-3-(trifluoromethyl)benzenesulfonamide] the value was 1140 nM.
On to `CN[C@@H](CC(C)C)C(=O)N1C[C@H]2CC[C@H](NS(=O)(=O)c3cccc(C(F)(F)F)c3)[C@H]2C1` [Example 558, N-[(3aR,4S,6aS)-2-(N-methyl-L-leucyl)octahydrocyclopenta[c]pyrrol-4-yl]-3-(trifluoromethyl)benzenesulfonamide], for which the IC50 was determined as 4880 nM.
On to `CNC(CC(C)C)C(=O)N1CC2CCC(N(C3CC3)S(=O)(=O)c3cccc(C(F)(F)F)c3)C2C1` [Example 559, N-cyclopropyl-N-[(3aS*,4S*,6aR*)-[2-(N-methyl-L-leucyl)octahydrocyclopenta[c]pyrrol-4-yl]-3-(trifluoromethyl)benzenesulfonamide], for which the IC50 stood at 1680 nM.
“N-((3aR,4S,6aS)-2-{[2-chloro-4-(trifluoromethyl)phenyl]sulfonyl}octahydrocyclopenta[c]pyrrol-4-yl)-N-methyl-L-phenylalaninamide [Example 432]”: the IC50 worked out at 1670 nM.
With “N-methyl-N-((3aR,4S,6aS)-2-{[4-(trifluoromethyl)phenyl]sulfonyl}octahydrocyclopenta[c]pyrrol-4-yl)-L-phenylalaninamide [Example 430]”, the IC50 stood at 1750 nM.
